Experimental data as given in ChEMBL document CHEMBL5058646 (2022).

Tests used:
[1] = biological target: Sigma non-opioid intracellular receptor 1 (Homo sapiens) (UniProt Q99720); conditions: Compound concentration 10.0 uM
[2] = biological target: MAP kinase-activated protein kinase 2 (Homo sapiens) (UniProt P49137); assay: MAPKAPK2 SGC Tm panel (DSF); conditions: Compound concentration 20.0 uM
[3] = biological target: Casein kinase II subunit alpha (Homo sapiens) (UniProt P68400); assay: CSNK2A1 SGC Tm panel (DSF); conditions: Compound concentration 20.0 uM
Chain of Casein kinase II subunit alpha (Homo sapiens) (P68400 whole entry, looked up): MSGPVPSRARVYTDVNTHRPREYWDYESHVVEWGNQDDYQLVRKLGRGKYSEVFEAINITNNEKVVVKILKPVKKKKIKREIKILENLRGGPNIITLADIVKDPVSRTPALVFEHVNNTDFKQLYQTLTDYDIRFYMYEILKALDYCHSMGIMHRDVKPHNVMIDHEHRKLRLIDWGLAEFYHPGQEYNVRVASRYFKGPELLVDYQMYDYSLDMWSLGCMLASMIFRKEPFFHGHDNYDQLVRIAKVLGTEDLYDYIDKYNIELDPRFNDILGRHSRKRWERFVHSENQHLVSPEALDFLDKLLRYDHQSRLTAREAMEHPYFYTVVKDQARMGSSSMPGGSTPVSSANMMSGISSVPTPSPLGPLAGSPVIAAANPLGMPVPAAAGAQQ

[4] = biological target: T1, Transcriptional regulator Kaiso (Homo sapiens) (UniProt Q86T24); conditions: SUD4, Compound concentration 1.0 uM
T1 sequence (whole entry): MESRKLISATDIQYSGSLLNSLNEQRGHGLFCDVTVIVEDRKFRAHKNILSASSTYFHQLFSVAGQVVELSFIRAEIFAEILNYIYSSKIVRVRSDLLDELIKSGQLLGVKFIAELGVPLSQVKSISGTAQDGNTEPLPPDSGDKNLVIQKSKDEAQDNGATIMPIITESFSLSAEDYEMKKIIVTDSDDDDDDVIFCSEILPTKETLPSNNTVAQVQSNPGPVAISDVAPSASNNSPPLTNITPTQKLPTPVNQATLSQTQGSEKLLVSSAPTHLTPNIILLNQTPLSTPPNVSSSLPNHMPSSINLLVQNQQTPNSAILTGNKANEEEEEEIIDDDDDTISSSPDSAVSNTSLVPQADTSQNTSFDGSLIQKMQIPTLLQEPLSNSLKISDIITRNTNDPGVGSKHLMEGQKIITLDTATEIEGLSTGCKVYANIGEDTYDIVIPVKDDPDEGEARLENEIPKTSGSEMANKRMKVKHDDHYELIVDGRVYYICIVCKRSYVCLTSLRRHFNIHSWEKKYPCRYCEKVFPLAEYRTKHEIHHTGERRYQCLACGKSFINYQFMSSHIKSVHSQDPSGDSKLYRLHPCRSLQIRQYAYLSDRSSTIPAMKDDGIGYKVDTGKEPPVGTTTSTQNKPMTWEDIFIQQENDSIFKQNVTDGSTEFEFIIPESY

[5] = biological target: Fibroblast growth factor receptor 2 (Homo sapiens) (UniProt P21802); assay: FGFR2 SGC Tm panel (DSF); conditions: Compound concentration 20.0 uM
Chain of Fibroblast growth factor receptor 2 (Homo sapiens) (P21802 22-821 limits assumed): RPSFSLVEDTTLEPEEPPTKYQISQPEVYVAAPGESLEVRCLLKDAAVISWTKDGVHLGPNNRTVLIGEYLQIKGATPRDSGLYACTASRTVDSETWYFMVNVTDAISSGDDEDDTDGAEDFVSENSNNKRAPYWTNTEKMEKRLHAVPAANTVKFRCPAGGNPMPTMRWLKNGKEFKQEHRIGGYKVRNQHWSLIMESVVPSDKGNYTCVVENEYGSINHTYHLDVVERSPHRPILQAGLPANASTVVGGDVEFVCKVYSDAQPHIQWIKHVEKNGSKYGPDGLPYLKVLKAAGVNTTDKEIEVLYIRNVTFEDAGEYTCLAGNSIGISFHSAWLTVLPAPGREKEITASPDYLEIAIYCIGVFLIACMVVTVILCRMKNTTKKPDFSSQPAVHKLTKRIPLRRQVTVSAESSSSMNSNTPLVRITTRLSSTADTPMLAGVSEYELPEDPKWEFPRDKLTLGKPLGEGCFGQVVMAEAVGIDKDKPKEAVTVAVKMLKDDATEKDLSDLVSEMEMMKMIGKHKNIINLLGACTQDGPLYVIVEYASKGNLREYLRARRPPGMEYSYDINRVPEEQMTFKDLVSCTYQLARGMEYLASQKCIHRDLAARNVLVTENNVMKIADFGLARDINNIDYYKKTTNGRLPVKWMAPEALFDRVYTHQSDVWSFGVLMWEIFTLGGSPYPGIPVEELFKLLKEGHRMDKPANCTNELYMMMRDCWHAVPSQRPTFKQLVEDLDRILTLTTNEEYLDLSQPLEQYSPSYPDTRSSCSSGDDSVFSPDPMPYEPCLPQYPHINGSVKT

[6] = biological target: Calcium/calmodulin-dependent protein kinase type 1G (Homo sapiens) (UniProt Q96NX5); assay: CAMK1G SGC Tm panel (DSF); conditions: Compound concentration 20.0 uM
Chain of Calcium/calmodulin-dependent protein kinase type 1G (Homo sapiens) (Q96NX5 whole entry, the tested form may be a part): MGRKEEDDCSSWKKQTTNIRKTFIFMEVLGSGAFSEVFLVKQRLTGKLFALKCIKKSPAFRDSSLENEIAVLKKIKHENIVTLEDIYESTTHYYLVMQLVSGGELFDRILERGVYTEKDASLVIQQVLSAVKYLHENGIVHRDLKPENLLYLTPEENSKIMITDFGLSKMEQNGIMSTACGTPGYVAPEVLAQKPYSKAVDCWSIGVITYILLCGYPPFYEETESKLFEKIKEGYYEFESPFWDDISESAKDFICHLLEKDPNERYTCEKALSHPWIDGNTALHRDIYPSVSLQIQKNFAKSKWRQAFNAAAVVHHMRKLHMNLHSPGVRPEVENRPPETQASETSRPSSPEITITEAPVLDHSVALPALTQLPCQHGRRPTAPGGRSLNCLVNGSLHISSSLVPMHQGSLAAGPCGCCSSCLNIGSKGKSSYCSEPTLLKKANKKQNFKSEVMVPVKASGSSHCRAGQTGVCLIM

[7] = biological target: T2, Zinc finger and BTB domain-containing protein 2 (Homo sapiens) (UniProt Q8N680); conditions: SUD4, Compound concentration 1.0 uM
T2 sequence (whole entry): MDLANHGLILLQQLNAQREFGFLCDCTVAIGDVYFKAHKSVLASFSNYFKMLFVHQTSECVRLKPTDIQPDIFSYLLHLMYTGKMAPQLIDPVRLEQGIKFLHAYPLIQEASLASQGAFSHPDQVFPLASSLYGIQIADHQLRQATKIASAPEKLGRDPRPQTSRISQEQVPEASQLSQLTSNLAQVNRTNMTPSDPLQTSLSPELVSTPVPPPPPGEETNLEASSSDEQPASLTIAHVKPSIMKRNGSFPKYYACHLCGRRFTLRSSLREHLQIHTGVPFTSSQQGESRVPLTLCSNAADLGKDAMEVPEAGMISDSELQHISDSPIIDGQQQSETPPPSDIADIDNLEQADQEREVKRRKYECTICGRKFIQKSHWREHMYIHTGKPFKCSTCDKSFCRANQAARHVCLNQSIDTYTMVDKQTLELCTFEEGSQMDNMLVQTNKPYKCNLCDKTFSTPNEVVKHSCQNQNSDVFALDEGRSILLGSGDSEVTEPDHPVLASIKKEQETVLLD

[8] = biological target: SRSF protein kinase 1 (Homo sapiens) (UniProt Q96SB4); assay: SRPK1 SGC Tm panel (DSF); conditions: Compound concentration 20.0 uM
Chain of SRSF protein kinase 1 (Homo sapiens) (Q96SB4 whole entry): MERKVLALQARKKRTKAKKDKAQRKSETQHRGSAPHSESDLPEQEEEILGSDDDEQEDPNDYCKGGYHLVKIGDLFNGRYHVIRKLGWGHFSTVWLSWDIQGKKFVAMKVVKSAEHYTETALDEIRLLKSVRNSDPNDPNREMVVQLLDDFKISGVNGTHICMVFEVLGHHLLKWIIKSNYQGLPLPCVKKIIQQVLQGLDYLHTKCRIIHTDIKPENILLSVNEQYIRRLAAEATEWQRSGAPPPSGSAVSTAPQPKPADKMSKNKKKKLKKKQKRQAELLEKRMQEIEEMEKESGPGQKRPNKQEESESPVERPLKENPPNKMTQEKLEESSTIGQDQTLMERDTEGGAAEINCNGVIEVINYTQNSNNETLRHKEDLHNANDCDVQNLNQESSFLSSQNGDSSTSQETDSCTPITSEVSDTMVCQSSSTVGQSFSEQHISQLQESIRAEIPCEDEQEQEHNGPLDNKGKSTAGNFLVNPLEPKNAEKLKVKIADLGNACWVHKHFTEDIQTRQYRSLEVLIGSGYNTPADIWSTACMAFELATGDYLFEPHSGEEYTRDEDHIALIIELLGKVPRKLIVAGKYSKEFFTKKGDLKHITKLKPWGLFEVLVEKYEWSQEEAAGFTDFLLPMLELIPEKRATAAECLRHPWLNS

[9] = biological target: 5-hydroxytryptamine receptor 3A (Homo sapiens) (UniProt P46098); conditions: Compound concentration 10.0 uM
Chain of 5-hydroxytryptamine receptor 3A (Homo sapiens) (P46098 whole entry): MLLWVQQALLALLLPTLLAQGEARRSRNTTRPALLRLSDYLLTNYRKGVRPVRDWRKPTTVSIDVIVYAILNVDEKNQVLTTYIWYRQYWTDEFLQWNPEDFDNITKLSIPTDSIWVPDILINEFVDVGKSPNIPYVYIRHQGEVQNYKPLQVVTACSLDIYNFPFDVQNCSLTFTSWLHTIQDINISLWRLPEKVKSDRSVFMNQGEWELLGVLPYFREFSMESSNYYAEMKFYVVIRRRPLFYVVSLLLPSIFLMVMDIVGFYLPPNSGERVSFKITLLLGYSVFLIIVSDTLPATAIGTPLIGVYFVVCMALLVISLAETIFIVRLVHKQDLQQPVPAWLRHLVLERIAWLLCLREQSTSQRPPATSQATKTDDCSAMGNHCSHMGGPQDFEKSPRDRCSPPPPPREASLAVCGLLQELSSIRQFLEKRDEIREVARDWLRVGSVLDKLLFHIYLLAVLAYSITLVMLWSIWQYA

[10] = biological target: Dual specificity tyrosine-phosphorylation-regulated kinase 1A (Homo sapiens) (UniProt Q13627); assay: DYRK1A SGC Tm panel (DSF); conditions: Compound concentration 20.0 uM
[11] = biological target: T3, Zinc finger and BTB domain-containing protein 11 (Homo sapiens) (UniProt O95625); conditions: OCI-Ly1, Compound concentration 1.0 uM
T3 sequence (whole entry): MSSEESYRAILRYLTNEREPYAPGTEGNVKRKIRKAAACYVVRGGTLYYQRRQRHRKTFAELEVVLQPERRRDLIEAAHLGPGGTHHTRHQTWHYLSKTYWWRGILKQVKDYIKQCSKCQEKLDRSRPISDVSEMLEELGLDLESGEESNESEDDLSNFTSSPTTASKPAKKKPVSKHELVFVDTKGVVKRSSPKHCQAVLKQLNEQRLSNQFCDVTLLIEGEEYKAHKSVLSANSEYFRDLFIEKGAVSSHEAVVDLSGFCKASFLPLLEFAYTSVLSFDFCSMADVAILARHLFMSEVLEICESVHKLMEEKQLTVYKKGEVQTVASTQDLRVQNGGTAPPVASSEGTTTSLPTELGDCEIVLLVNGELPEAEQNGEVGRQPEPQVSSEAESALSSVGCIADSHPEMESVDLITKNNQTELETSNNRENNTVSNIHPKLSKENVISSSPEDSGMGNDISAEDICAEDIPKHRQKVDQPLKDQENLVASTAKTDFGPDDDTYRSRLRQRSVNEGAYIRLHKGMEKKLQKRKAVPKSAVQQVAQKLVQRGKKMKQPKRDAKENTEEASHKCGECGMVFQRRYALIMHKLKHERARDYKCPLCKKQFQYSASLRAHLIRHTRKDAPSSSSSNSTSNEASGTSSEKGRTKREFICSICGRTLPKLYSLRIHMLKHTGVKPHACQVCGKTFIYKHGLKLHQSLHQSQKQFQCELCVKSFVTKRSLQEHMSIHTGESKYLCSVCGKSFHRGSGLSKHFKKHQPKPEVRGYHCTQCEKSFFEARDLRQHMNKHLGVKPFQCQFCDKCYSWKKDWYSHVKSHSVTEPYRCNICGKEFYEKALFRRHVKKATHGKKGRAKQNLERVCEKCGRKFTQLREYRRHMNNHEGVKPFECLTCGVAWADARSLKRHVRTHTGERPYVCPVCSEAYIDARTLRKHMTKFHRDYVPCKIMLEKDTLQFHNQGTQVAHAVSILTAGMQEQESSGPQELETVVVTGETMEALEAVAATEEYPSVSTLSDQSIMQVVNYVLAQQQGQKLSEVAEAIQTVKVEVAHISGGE

[12] = biological target: Serine/threonine-protein kinase VRK1 (Homo sapiens) (UniProt Q99986); assay: VRK1 SGC Tm panel (DSF); conditions: Compound concentration 20.0 uM
Chain of Serine/threonine-protein kinase VRK1 (Homo sapiens) (Q99986 whole entry): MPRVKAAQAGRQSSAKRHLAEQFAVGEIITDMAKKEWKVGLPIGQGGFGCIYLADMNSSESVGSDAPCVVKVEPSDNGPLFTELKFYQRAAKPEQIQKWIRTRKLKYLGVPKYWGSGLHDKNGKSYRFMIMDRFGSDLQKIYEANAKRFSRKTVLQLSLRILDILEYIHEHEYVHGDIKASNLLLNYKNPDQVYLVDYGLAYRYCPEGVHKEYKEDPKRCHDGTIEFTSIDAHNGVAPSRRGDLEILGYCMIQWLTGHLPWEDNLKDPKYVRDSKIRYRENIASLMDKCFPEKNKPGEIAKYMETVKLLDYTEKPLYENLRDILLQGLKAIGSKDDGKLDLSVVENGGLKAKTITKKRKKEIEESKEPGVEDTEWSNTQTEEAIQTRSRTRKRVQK

[13] = biological target: D(2) dopamine receptor (Homo sapiens) (UniProt P14416); conditions: Compound concentration 10.0 uM
Chain of D(2) dopamine receptor (Homo sapiens) (P14416 whole entry): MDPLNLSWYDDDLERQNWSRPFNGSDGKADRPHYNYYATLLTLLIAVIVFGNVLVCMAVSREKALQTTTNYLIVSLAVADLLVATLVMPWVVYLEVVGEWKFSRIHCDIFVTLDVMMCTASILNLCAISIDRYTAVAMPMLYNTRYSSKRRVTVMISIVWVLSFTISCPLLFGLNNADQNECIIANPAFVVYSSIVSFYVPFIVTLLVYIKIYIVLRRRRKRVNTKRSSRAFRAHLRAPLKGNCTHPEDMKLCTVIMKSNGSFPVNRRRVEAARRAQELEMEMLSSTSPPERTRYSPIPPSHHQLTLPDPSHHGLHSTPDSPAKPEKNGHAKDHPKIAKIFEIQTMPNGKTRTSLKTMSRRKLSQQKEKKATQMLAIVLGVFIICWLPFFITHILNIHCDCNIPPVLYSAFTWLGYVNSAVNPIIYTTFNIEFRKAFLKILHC

[14] = species: Rattus norvegicus; conditions: Compound concentration 10.0 uM
[15] = biological target: Ephrin type-B receptor 3 (Homo sapiens) (UniProt P54753); assay: EPHB3 SGC Tm panel (DSF); conditions: Compound concentration 20.0 uM
Chain of Ephrin type-B receptor 3 (Homo sapiens) (P54753 whole entry): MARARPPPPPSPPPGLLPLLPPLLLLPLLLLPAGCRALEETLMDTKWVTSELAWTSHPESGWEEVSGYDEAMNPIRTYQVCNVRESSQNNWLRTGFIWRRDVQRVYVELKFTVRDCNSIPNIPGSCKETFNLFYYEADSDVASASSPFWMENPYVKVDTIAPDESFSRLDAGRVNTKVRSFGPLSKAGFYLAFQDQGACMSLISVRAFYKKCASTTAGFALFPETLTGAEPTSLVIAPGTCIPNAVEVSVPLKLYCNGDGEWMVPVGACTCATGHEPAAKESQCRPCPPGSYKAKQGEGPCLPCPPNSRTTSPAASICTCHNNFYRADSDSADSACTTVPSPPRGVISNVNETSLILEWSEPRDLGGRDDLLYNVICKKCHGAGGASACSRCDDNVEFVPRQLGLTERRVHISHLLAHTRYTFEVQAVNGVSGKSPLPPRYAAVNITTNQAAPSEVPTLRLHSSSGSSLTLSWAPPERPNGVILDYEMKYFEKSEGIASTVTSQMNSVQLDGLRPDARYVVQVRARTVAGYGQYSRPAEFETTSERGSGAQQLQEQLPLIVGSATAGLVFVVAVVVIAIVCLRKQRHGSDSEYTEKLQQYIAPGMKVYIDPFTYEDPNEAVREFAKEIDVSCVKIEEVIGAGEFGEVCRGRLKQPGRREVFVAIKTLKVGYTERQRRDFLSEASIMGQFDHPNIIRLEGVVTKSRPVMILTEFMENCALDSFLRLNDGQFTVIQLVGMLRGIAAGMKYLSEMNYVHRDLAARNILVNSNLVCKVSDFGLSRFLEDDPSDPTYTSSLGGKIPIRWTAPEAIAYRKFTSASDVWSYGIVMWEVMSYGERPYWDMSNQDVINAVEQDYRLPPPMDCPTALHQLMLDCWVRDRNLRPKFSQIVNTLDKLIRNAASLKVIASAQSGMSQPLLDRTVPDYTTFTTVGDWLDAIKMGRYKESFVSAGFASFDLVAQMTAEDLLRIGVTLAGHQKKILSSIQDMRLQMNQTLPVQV

Chain of Sigma non-opioid intracellular receptor 1 (Homo sapiens) (Q99720 whole entry): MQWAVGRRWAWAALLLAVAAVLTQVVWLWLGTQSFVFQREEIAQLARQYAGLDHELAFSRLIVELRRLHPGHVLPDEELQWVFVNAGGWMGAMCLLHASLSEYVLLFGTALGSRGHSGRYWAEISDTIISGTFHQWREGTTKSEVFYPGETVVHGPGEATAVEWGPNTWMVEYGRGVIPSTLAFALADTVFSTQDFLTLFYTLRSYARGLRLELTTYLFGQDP

inhibition [1]: 47.4%
Tm [2]: 46 °C
Tm [3]: 44 °C
LogFC [4]: -0.022
Tm [5]: 50 °C
Tm [6]: 44 °C
LogFC [7]: 0.153
Tm [8]: 45 °C
inhibition [9]: -5.81%
Tm [10]: 45 °C
LogFC [11]: -0.00672
Tm [12]: 46 °C
inhibition [13]: 20.8%
inhibition [14]: 59.6%
Tm [15]: 52 °C
Compound: C[C@@H]1CN(c2ncc(Cl)c(Nc3ccc4c(c3)n(CCC(C)(C)O)c(=O)n4C)n2)C[C@H](C)C1(F)F
